Results as given in EP0569083A1, “New quinazolines as inhibitors of HIV reverse transcriptase” (priority 1992, dated 1993).
pIC50: −log10 of the molar value. Where two headings read alike, the source gives them in different places.

Tests used:
[1] = molecular target: T1, recombinant HIV reverse transcriptase (HIV RTR) (Human immunodeficiency virus type 1 group M subtype B, UniProt P04585); assay: Reverse transcriptase assay (incorporation of tritiated dGMP into acid-precipitable cDNA); format: biochemical
T1 construct: recombinant HIV reverse transcriptase (HIV RTR); made in house; host or cells: bacteria (E. coli is named only for the purified heterodimer control)
Experimental: (§1) The assay measures the incorporation of tritiated deoxyguanosine monophosphate by recombinant HIV reverse transcriptase (HIV RTR) (or other RT) into acid-precipitable cDNA at the Km values of dGTP and poly r(C)·oligo d(G)₁₂₋₁₈.
(§2) The assays were carried out in 55 mM Tris (pH 8.2)-30 mM KCl-30 mM MgCl₂-1 mM dithiothreitol-20 µg of rC:dG₁₂₋₁₈ (Pharmacia) per ml-8 µM [³H]dGTP (New England Nuclear)-0.01% Triton X-100-50 µM ethylene glycol-bis(β-amino-ethyl ether)-N,N,N',N'-tetraacetic acid (EGTA)-1 mg of bovine serum albumin per ml. After 60 min of incubation at 37°C, acid-precipitable material was collected onto glass fiber filters by using a semiautomatic cell harvester. Bacterial cell extracts containing RT were diluted to within the linear range of the assay, and activity was determined in the presence and absence of inhibitor. Purified HIV-1 RT heterodimer produced in E. coli also served as a control.

A17 RT = molecular target: T2, A17 RT (Human immunodeficiency virus type 1 group M subtype B, UniProt P04585, K690N/Y768C); assay: Reverse transcriptase assay, double (DBL) mutant; format: biochemical, HIV
T2 construct: A17 RT was employed in the assay; made in house; host or cells: bacteria
Experimental: as §1, §2
For the double (DBL) mutant assay, A17 RT was employed in the assay. A17 RT is resistant to various aminopyridones, as described in Nunberg, J.H. et al., J. Virol. 65, 4887 (1991).

[2] = recombinant HIV RT, 60 min at 37°C, read-out: IC50

SMILES	pIC50 [1]	pIC50 (A17 RT)	pIC50 [1, 2]	pIC50 (A17 RT; A17 RT (double mutant, resistant to aminopyridones), read-out: IC50DBL Mutant)
O=C1Nc2ccc(Cl)cc2C(C#Cc2ccccn2)(C2CC2)N1 (racemic) [Compound 11, 6-chloro-4-cyclopropyl-3,4-dihydro-4-((2-pyridyl)ethynyl)quinazolin-2(1H)-one]	7.72	6.20	–	–
COCC#CC1(C2CC2)NC(=O)Nc2ccc(Cl)cc21 (stereo not drawn) [Compound 1, 6-chloro-4-cyclopropyl-3,4-dihydro-4-(3-methoxy-1-propynyl)quinazolin-2(1H)-one]	7.31	5.14	–	–
COCC#CC1(C2CC2)c2cc(Cl)ccc2NC(=O)N1C (stereo not drawn) [Compound 2, 6-chloro-4-cyclopropyl-3,4-dihydro-3-methyl-4-(3-methoxy-1-propynyl)quinazolin-2(1H)-one]	7.89	6.15	–	–
CN1C(=O)Nc2ccc(Cl)cc2C1(C#CCOCC(F)(F)F)C1CC1 (stereo not drawn) [Compound 3, 6-chloro-4-cyclopropyl-3,4-dihydro-3-methyl-4-(3-(2,2,2-trifluoroethoxy)-1-propynyl)quinazolin-2(1H)-one]	7.72	5.59	–	–
CN1C(=O)Nc2ccc(Cl)cc2C1(C#CCCF)C1CC1 (stereo not drawn) [Compound 4, 6-chloro-4-cyclopropyl-4-(4-fluoro-1-butynyl)-3,4-dihydro-3-methylquinazolin-2(1H)-one]	8.15	6.64	–	–
O=C1Nc2ccc(Cl)cc2C(C#CCCF)(C2CC2)N1 (stereo not drawn) [Compound 5, 6-chloro-4-cyclopropyl-4-(4-fluoro-1-butynyl)-3,4-dihydroquinazolin-2(1H)-one]	7.51	5.46	–	–
CN1C(=O)Nc2ccc(Cl)cc2C1(C#CCCCl)C1CC1 (stereo not drawn) [Compound 6, 6-chloro-4-(4-chloro-1-butynyl)-4-cyclopropyl-3,4-dihydro-3-methylquinazolin-2(1H)-one]	8.15	6.60	–	–
CN1C(=O)Nc2ccc(Cl)cc2C1(C#CCN=[N+]=[N-])C1CC1 (stereo not drawn) [Compound 7, 4-(3-azido-1-propynyl)-6-chloro-4-cyclopropyl-3,4-dihydro-3-methylquinazolin-2(1H)-one]	7.70	5.76	–	–
CN1C(=O)Nc2ccc(Cl)cc2C1(C#CCF)C1CC1 (stereo not drawn) [Compound 8, 6-chloro-4-cyclopropyl-4-(3-fluoro-1-propynyl)-3,4-dihydro-3-methylquinazolin-2(1H)-one]	7.62	5.54	–	–
CN(C)CC#CC1(C2CC2)c2cc(Cl)ccc2NC(=O)N1C (stereo not drawn) [Compound 9, 6-chloro-4-cyclopropyl-3,4-dihydro-3-methyl-4-(3-(N,N-dimethylamino)-1-propynyl)quinazolin-2(1H)-one]	7.27	6.56	–	–
CN1C(=O)Nc2ccc(Cl)cc2C1(C#Cc1ccccn1)C1CC1 (stereo not drawn) [Compound 10, 6-chloro-4-cyclopropyl-3,4-dihydro-3-methyl-4-((2-pyridyl)ethynyl)quinazolin-2(1H)-one]	7.68	7.06	–	–
O=C1Nc2ccc(Cl)cc2C(C#Cc2cccnc2)(C2CC2)N1 (stereo not drawn) [Compound 12, 6-chloro-4-cyclopropyl-3,4-dihydro-4-((3-pyridyl)ethynyl)quinazolin-2(1H)-one]	7.08	6.51	–	–
O=C1Nc2ccc(Cl)cc2C(C#Cc2ccncc2)(C2CC2)N1 (stereo not drawn) [Compound 13, 6-chloro-4-cyclopropyl-3,4-dihydro-4-((4-pyridyl)ethynyl)quinazolin-2(1H)-one]	6.33	5.52	–	–
O=C1Nc2ccc(Cl)cc2C(C#Cc2cncnc2)(C2CC2)N1 (stereo not drawn) [Compound 14, 6-chloro-4-cyclopropyl-3,4-dihydro-4-((5-pyrimidinyl)ethynyl)quinazolin-2(1H)-one]	5.76	5.52	–	–
O=C1Nc2ccc(Cl)cc2C(C#Cc2ncccn2)(C2CC2)N1 (stereo not drawn) [Compound 15, 6-chloro-4-cyclopropyl-3,4-dihydro-4-((2-pyrimidinyl)ethynyl)quinazolin-2(1H)-one]	–	5.06	6.89	–
O=C1Nc2ccc(Cl)cc2C(C#Cc2cnccn2)(C2CC2)N1 (stereo not drawn) [Compound 16, 6-chloro-4-cyclopropyl-3,4-dihydro-4-((2-pyrazinyl)ethynyl)quinazolin-2(1H)-one]	–	5.05	6.57	–
CN1C(=O)Nc2ccc(Cl)cc2C1(C#CCOc1ccncc1)C1CC1 (stereo not drawn) [Compound 17, 6-chloro-4-cyclopropyl-3,4-dihydro-3-methyl-4-(3-(4-pyridyloxy)-1-propynyl)quinazolin-2(1H)-one]	6.78	5.41	–	–
CN1C(=O)Nc2ccc(Cl)cc2C1(C#CCOc1cc[n+]([O-])cc1)C1CC1 (stereo not drawn) [Compound 18, 6-chloro-4-cyclopropyl-3,4-dihydro-3-methyl-4-(3-(4-(N-oxopyridyl)oxy)-1-propynyl)quinazolin-2(1H)-one]	–	–	5.03	4.19
CN1C(=O)Nc2ccc(Cl)cc2C1(C#CCN1CCOCC1)C1CC1 (stereo not drawn) [Compound 19, 6-chloro-4-cyclopropyl-3,4-dihydro-3-methyl-4-(3-(4-morpholinyl)-1-propynyl)quinazolin-2(1H)-one]	6.00	4.66	–	–
CN1C(=O)Nc2ccc(Cl)cc2C1(C#CCn1ccnc1)C1CC1 (stereo not drawn) [Compound 20, 6-chloro-4-cyclopropyl-3,4-dihydro-4-(3-(1-imidazolyl)-1-propynyl)-3-methylquinazolin-2(1H)-one]	6.21	6.02	–	–
C=CC#CC1(C2CC2)c2cc(Cl)ccc2NC(=O)N1C (stereo not drawn) [Compound 21, 4-(3-buten-1-ynyl)-6-chloro-4-cyclopropyl-3,4-dihydro-3-methylquinazolin-2(1H)-one]	8.37	6.61	–	–
CN1C(=O)Nc2ccc(Cl)cc2C1(C#CCO)C1CC1 (stereo not drawn) [Compound 22, 6-Chloro-4-cyclopropyl-3,4-dihydro-4-(3-hydroxy-1-propynyl)-3-methylquinazolin-2(1H)-one]	6.59	–	–	–
O=C1Nc2ccc(Cl)cc2C(C#Cc2ccccc2)(C2CC2)N1 (stereo not drawn) [Compound 23, 6-chloro-4-cyclopropyl-3,4-dihydro-4-(phenylethynyl)quinazolin-2(1H)-one]	8.21	6.87	–	–
CN1C(=O)Nc2ccc(Cl)cc2C1(C#CCOc1ccccn1)C1CC1 (stereo not drawn) [Compound 24, 6-Chloro-4-cyclopropyl-3,4-dihydro-3-methyl-4-(3-(2-pyridyloxy)-1-propynyl)quinazolin-2(1H)-one]	6.90	5.31	–	–
O=C1Nc2ccc(Cl)cc2C(C#Cc2ccccc2[N+](=O)[O-])(C2CC2)N1 (stereo not drawn) [Compound 25, 6-Chloro-4-cyclopropyl-3,4-dihydro-4-(2-nitrophenylethynyl)quinazolin-2(1H)-one]	7.98	6.41	–	–
O=C1Nc2ccc(Cl)cc2[C@@](C#Cc2ccccn2)(C2CC2)N1 [Compound 26, 6-chloro-4(S)-cyclopropyl-3,4-dihydro-4-((2-pyridyl)ethynyl)quinazolin-2(1H)-one]	8.15	6.40	–	–
